PubChem BioAssay AID1259407 (Chemical Carcinogenesis Research Information System (CCRIS), 2018)
Calls of active or inactive are those of the source. The rule behind the calls is not given here.

Test system: CCRIS mutagenicity, Ames/micronucleus/aberration tests
Test: CCRIS mutagenicity studies
Details: Test System: AMES SALMONELLA TYPHIMURIUM

Measured: mutagenic call

CCN(N=O)c1ccccc1
inactive: Strain/Indicator: TA98, Metabolic Activation: HAMSTER, LIVER, S-9, AROCLOR 1254, Method: PREINCUBATION inactive; negative | Strain/Indicator: TA98, Metabolic Activation: HAMSTER, LIVER, S-9, AROCLOR 1254, Method: STANDARD PLATE inactive; negative | Strain/Indicator: TA98, Metabolic Activation: HAMSTER, LIVER, S-9, Method: PREINCUBATION inactive; negative | Strain/Indicator: TA98, Metabolic Activation: HAMSTER, LIVER, S-9, Method: STANDARD PLATE inactive; negative | Strain/Indicator: TA98, Metabolic Activation: MOUSE, LIVER, S-9, AROCLOR 1254, Method: PREINCUBATION inactive; negative | Strain/Indicator: TA98, Metabolic Activation: MOUSE, LIVER, S-9, AROCLOR 1254, Method: STANDARD PLATE inactive; negative | Strain/Indicator: TA98, Metabolic Activation: MOUSE, LIVER, S-9, Method: PREINCUBATION inactive; negative | Strain/Indicator: TA98, Metabolic Activation: MOUSE, LIVER, S-9, Method: STANDARD PLATE inactive; negative | Strain/Indicator: TA98, Metabolic Activation: NONE, Method: PREINCUBATION inactive; negative | Strain/Indicator: TA98, Metabolic Activation: NONE, Method: STANDARD PLATE inactive; negative | Strain/Indicator: TA98, Metabolic Activation: RAT, LIVER, S-9, AROCLOR 1254, Method: PREINCUBATION inactive; negative | Strain/Indicator: TA98, Metabolic Activation: RAT, LIVER, S-9, AROCLOR 1254, Method: STANDARD PLATE inactive; negative | Strain/Indicator: TA98, Metabolic Activation: RAT, LIVER, S-9, Method: PREINCUBATION inactive; negative | Strain/Indicator: TA98, Metabolic Activation: RAT, LIVER, S-9, Method: STANDARD PLATE inactive; negative | Strain/Indicator: TA100, Metabolic Activation: HAMSTER, LIVER, S-9, AROCLOR 1254, Method: PREINCUBATION inactive; negative | Strain/Indicator: TA100, Metabolic Activation: HAMSTER, LIVER, S-9, AROCLOR 1254, Method: STANDARD PLATE inactive; negative | Strain/Indicator: TA100, Metabolic Activation: HAMSTER, LIVER, S-9, Method: PREINCUBATION inactive; negative | Strain/Indicator: TA100, Metabolic Activation: HAMSTER, LIVER, S-9, Method: STANDARD PLATE inactive; negative | Strain/Indicator: TA100, Metabolic Activation: MOUSE, LIVER, S-9, AROCLOR 1254, Method: PREINCUBATION inactive; negative | Strain/Indicator: TA100, Metabolic Activation: MOUSE, LIVER, S-9, AROCLOR 1254, Method: STANDARD PLATE inactive; negative | Strain/Indicator: TA100, Metabolic Activation: MOUSE, LIVER, S-9, Method: PREINCUBATION inactive; negative | Strain/Indicator: TA100, Metabolic Activation: MOUSE, LIVER, S-9, Method: STANDARD PLATE inactive; negative | Strain/Indicator: TA100, Metabolic Activation: NONE, Method: PREINCUBATION inactive; negative | Strain/Indicator: TA100, Metabolic Activation: NONE, Method: STANDARD PLATE inactive; negative | Strain/Indicator: TA100, Metabolic Activation: RAT, LIVER, S-9, AROCLOR 1254, Method: PREINCUBATION inactive; negative | Strain/Indicator: TA100, Metabolic Activation: RAT, LIVER, S-9, AROCLOR 1254, Method: STANDARD PLATE inactive; negative | Strain/Indicator: TA100, Metabolic Activation: RAT, LIVER, S-9, Method: PREINCUBATION inactive; negative | Strain/Indicator: TA100, Metabolic Activation: RAT, LIVER, S-9, Method: STANDARD PLATE inactive; negative | Strain/Indicator: TA1535, Metabolic Activation: HAMSTER, LIVER, S-9, AROCLOR 1254, Method: PREINCUBATION inactive; negative | Strain/Indicator: TA1535, Metabolic Activation: HAMSTER, LIVER, S-9, AROCLOR 1254, Method: STANDARD PLATE inactive; negative | Strain/Indicator: TA1535, Metabolic Activation: HAMSTER, LIVER, S-9, Method: PREINCUBATION inactive; negative | Strain/Indicator: TA1535, Metabolic Activation: HAMSTER, LIVER, S-9, Method: STANDARD PLATE inactive; negative | Strain/Indicator: TA1535, Metabolic Activation: MOUSE, LIVER, S-9, AROCLOR 1254, Method: PREINCUBATION inactive; negative | Strain/Indicator: TA1535, Metabolic Activation: MOUSE, LIVER, S-9, AROCLOR 1254, Method: STANDARD PLATE inactive; negative | Strain/Indicator: TA1535, Metabolic Activation: MOUSE, LIVER, S-9, Method: PREINCUBATION inactive; negative | Strain/Indicator: TA1535, Metabolic Activation: MOUSE, LIVER, S-9, Method: STANDARD PLATE inactive; negative | Strain/Indicator: TA1535, Metabolic Activation: NONE, Method: PREINCUBATION inactive; negative | Strain/Indicator: TA1535, Metabolic Activation: NONE, Method: STANDARD PLATE inactive; negative | Strain/Indicator: TA1535, Metabolic Activation: RAT, LIVER, S-9, AROCLOR 1254, Method: PREINCUBATION inactive; negative | Strain/Indicator: TA1535, Metabolic Activation: RAT, LIVER, S-9, AROCLOR 1254, Method: STANDARD PLATE inactive; negative | Strain/Indicator: TA1535, Metabolic Activation: RAT, LIVER, S-9, Method: PREINCUBATION inactive; negative | Strain/Indicator: TA1535, Metabolic Activation: RAT, LIVER, S-9, Method: STANDARD PLATE inactive; negative
